Results reported in paper PMC10809370, “Dye-Decolorizing Peroxidase of Streptomyces coelicolor (ScDyPB) Exists as a Dynamic Mixture of Kinetically Different Oligomers” (ACS Omega, 2024).
Blank lines part the entries; values can stand above or below the molecule they belong to.

Key:
[1] = target: T1, Dye-decolorizing peroxidase ScDyPB (Streptomyces coelicolor, UniProt Q9FBY9); assay: dye oxidation rate at […] nm, […] dye, […] H2O2; assay type: biochemical
T1 construct: gene SCO7193
T1 sequence (Q9FBY9 1-316): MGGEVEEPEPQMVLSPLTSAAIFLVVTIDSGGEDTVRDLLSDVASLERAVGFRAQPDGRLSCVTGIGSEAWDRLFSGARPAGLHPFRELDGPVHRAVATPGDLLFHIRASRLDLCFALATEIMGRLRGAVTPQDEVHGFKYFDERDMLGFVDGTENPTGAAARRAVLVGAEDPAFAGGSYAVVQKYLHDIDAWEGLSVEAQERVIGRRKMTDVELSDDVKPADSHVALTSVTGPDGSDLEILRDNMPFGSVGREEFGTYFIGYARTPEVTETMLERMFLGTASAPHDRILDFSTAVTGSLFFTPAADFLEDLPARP

[2] = target: T1, Dye-decolorizing peroxidase ScDyPB; assay: dye oxidation rate at […] nm, […] dye, […] H2O2; assay type: biochemical; remark: listed apart in the source
[3] = target: T1, Dye-decolorizing peroxidase ScDyPB; assay: biochemical
[4] = target: T1, Dye-decolorizing peroxidase ScDyPB; assay: initial rates of MHQ oxidation to methylquinone at […] nm, purified enzyme; assay type: biochemical
[5] = target: the molecule itself; assay: SEC; Superdex 75 Increase 10/300 GL, 20 mM Tris-HCl, 0.1 M NaCl, pH 7.5; 100 uL of 18.1 uM ScDyPB injected; calibrated with standard proteins; apparent molecular weights
purified protein = substrate: OO; assay: purified protein; conditions: heme heme in its resting state

Molecule: Nc1c(S(=O)(=O)O)cc(Nc2ccc(S(=O)(=O)O)c(Nc3nc(Cl)nc(Cl)n3)c2)c2c1C(=O)c1ccccc1C2=O [RB4, reactive blue 4]
dye oxidation rate at 610 nm, 0.1 mM dye, 1.0 mM H2O2 [1]: 0.66 ± 0.04 s^–1

dye oxidation rate at 595 nm, 0.1 mM dye, 1.0 mM H2O2 [2]: 0.58 ± 0.02 s^–1
Molecule: Nc1c(S(=O)(=O)O)cc(Nc2cccc(S(=O)(=O)CCOS(=O)(=O)O)c2)c2c1C(=O)c1ccccc1C2=O [RB19, reactive blue 19]

Ki [3]: 4.12 ± 0.36 µM
Molecule: CCn1c(=NN=c2sc3cc(S(=O)(=O)O)ccc3n2CC)sc2cc(S(=O)(=O)O)ccc21 [ABTS, 2,2′-azino-di(3-ethyl-benzothiazoline-6-sulfonic acid)]

Molecule: Cc1cc(O)ccc1O [MHQ, methylhydroquinone]
initial rates of MHQ oxidation to methylquinone at 251 nm, purified enzyme [4]: the rate of the oxidation of both ABTS and MHQ scaled linearly with the concentration of the ScDyPB in the cuvette

B1: Dye-decolorizing peroxidase from S. coelicolor A3(2) (ScDyPB) (enzyme, Streptomyces coelicolor A3(2))
chain: MGGEVEEPEPQMVLSPLTSAAIFLVVTIDSGGEDTVRDLLSDVASLERAVGFRAQPDGRLSCVTGIGSEAWDRLFSGARPAGLHPFRELDGPVHRAVATPGDLLFHIRASRLDLCFALATEIMGRLRGAVTPQDEVHGFKYFDERDMLGFVDGTENPTGAAARRAVLVGAEDPAFAGGSYAVVQKYLHDIDAWEGLSVEAQERVIGRRKMTDVELSDDVKPADSHVALTSVTGPDGSDLEILRDNMPFGSVGREEFGTYFIGYARTPEVTETMLERMFLGTASAPHDRILDFSTAVTGSLFFTPAADFLEDLPARP
notes: Dye-decolorizing peroxidase ScDyPB, Streptomyces coelicolor A3(2), UniProtKB Q9FBY9; molecular weight printed as 34 kDa; Heme protein, reconstituted with hemin; also called type B dye-decolorizing peroxidase of Streptomyces coelicolor; subfamily B DyP; source: E. coli BL21 (DE3), purified, reconstituted with hemin
stoichiometry N [5]: 3
Km (purified protein): 890 ± 60 µM
